# US11597954B2, “Bioproduction of phenethyl alcohol, aldehyde, acid, amine, and related compounds” (National University of Singapore, priority 2017, dated 2023)
# pKi: −log10 of the molar value.
# Assays:
# [1] = tested on: cells; settings: literature; cited from earlier work
# [2] = tested on: E. coli (R-PAL-PAD_E-SMO-SOI-PAR); test: Apparent kinetics of the whole-cells (Lineweaver-Burk plot) with and without 2-PE; type: cell-based; settings: competitive inhibition; 3 mM 2-PE, 15 minutes, 5 g cdw/L cells, 10 mM L-phenylalanine, 30° C.
# Description: (§1) The reaction for FIG. 17b was done at 30° C. and 250 rpm in 2 ml KP buffer (100 mM, pH 8.0) containing 0.5% (w/v) glucose, 5 g cdw/L of cell suspension, 10 mM L-phenylalanine, and (•) 0 or (▴) 3 mM of 2-PE in the aqueous phase, with n-hexadecane in the organic phase.
# To further investigate the product inhibition, the apparent kinetics of the whole-cells was measured and determined using Lineweaver-Burk plot. 2-PE concentration of 3 mM was used for 15 minutes in order to determine the kinetic, thus the product toxicity towards the cells could be neglected.
# [3] = Partition coefficient in aqueous-organic biphasic system; type: physicochemical; settings: for Partition coefficient K value: phase ratio 1:1
# Description: FIGS. 18a and 18b show (FIG. 18a) partition coefficient of 2-PE in aqueous-organic biphasic system. Partition coefficient measured at a phase ratio of 1:1. KP buffer (100 mM, pH 8.0) was utilized as the aqueous buffer. All data were obtained from the mean values of triplicate with standard deviations through HPLC analysis. K value for L-phenylalanine was observed as ˜0 in all the respective organic solvents mentioned and (FIG. 18b) screening of 7 different organic solvent for the one-pot production of 2-PE from L-phenylalanine with the KP buffer (100 mM, pH 8.0) containing 0.5% glucose and 50 mM L-phenylalanine.
# In-situ product removal technique via extraction have been conducted to remove the obtained 2-PE from the aqueous phase and make its concentration below the inhibitory level. We investigated different type of organic solvents and ionic liquids to perform the extractive biotransformation for 2-PE production via styrene-derived pathway from L-phenylalanine, starting from the analysis of their partition coefficients in the biphasic system. Product and substrate coefficient partitions in organic and aqueous phase were determined by adding different concentration of 2-PE and L-phenylalanine, respectively, into KP buffer (100 mM, pH 8.0) together with the respective organic solvents. Reaction mixtures were incubated for 1 h (280 rpm, 30° C.).
# [4] = tested on: E. coli (pRSF-PAL-PAD_pET-SMO-SOI-PAR); type: cell-based
# Description: as §1
# The product inhibition was investigated by adding different concentration of 2-PE to the cell suspension (10 g cdw/L) of E. coli (pRSF-PAL-PAD_pET-SMO-SOI-PAR) in KP buffer (100 mM, pH 8.0) containing 0.5% glucose in aqueous phase with n-hexadecane as the organic phase, followed by the incubation at 30° C. and 250 rpm for 3 h.
# Biotransformation was done in aqueous phase with KP buffer (100 mM, pH 8.0) containing cell suspension (10 g cdw/l), 0.5% glucose, and 50 mM L-phenylalanine as initial substrate while n-hexadecane as the organic phase (250 rpm, 2 h, 30° C.)
SMILES,Concentration of 2-PE that will inhibit the cells [1],pKi [2],"Partition coefficient K value ([3]; most of the organic solvents used vs KP buffer (100 mM, pH 8.0))","Partition coefficient ([3]; n-hexadecane vs KP buffer (100 mM, pH 8.0), compared with the other organic solvents)","2-PE concentration in the aqueous phase that started to inhibit the biotransformation ([4]; 3 h pretreatment, then 50 mM L-phenylalanine, 2 h, 30° C.)","Toxicity of 2-PE to the cells ([4]; cells 10 g cdw/L incubated with 2-PE 3 h, 30° C., KP buffer pH 8.0 / n-hexadecane)",Biotransformation activity of cells pretreated with 2-PE ([4]; pretreated with 90 mM 2-PE),"Partition coefficient K value ([3]; all the respective organic solvents vs KP buffer (100 mM, pH 8.0))"
"OCCc1ccccc1 [2-PE, 2-Phenylethanol]",2-3 gr/L,2.32,> 1,much lower,above 30 mM,toxic,almost no activity,–
N[C@@H](Cc1ccccc1)C(=O)O [L-phenylalanine],–,–,–,–,–,–,–,~0
